Source: article PMC7872314, “Modeling Bioavailable Concentrations in Zebrafish Cell Lines and Embryos Increases the Correlation of Toxicity Potencies across Test Systems” (Environmental Science & Technology, 2020)
Read-outs that look alike come from different tables or passages of the source.

Tests used:
[1] = test system: ZF4 (fibroblasts) cell line; test: MTS assay (MTS/BCA multiplex), NAD(P)H metabolism; type: cell-based, zebrafish (Danio rerio); conditions: Danio rerio, Fibroblast
[2] = test system: ZF4 (fibroblasts) cell line; test: BCA assay (MTS/BCA multiplex), protein amount; type: cell-based, zebrafish (Danio rerio); conditions: Danio rerio, Fibroblast
[3] = test system: ZF4 (fibroblasts) cell line; test: ATP assay (ATP/LDH multiplex), ATP metabolism; type: cell-based, zebrafish (Danio rerio); conditions: Danio rerio, Fibroblast
[4] = test system: ZF4 (fibroblasts) cell line; test: Neutral red, fluorescence (NRf), AB/CFDA/NR multiplex, lysosome stability; type: cell-based, zebrafish (Danio rerio); conditions: Danio rerio, Fibroblast
[5] = test system: ZFL (hepatocytes) cell line; test: cells; type: cell-based, zebrafish (Danio rerio); conditions: Danio rerio, Hepatocyte
[6] = test system: ZFL (hepatocytes) cell line; test: cells; type: cell-based, zebrafish (Danio rerio); conditions: Danio rerio, Hepatocyte; remark: listed apart in the source
[7] = test system: ZFL (hepatocytes) cell line; test: cells; type: cell-based, zebrafish (Danio rerio); conditions: Danio rerio, Hepatocyte; remark: listed apart in the source
ZF4 and ZFL cell lines = test: Cytotoxicity assays, all endpoints, both cell lines (mean/range); type: cell-based, zebrafish (Danio rerio); conditions: 48 h, mean of all cytotoxicity endpoints (without LDH) in ZF4 and ZFL
zebrafish embryos [8] = test system: zebrafish embryos; parameters: method as in earlier work; conditions: nominal, cited from earlier work
[9] = test system: ZF4 (fibroblasts) cell line; test: alamarBlue (AB) endpoint of AB/CFDA/NR multiplex, cellular respiration; type: cell-based, zebrafish (Danio rerio); conditions: Danio rerio, Fibroblast
[10] = test system: ZF4 (fibroblasts) cell line; test: Neutral red, absorbance (NRa), AB/CFDA/NR multiplex, lysosome stability; type: cell-based, zebrafish (Danio rerio); conditions: Danio rerio, Fibroblast
[11] = ref Comptox, PubChem or DrugBank; cited from earlier work
zebrafish embryos [12] = test: animal or person; type: in vivo, zebrafish (Danio rerio); conditions: for EC50: Danio rerio
[13] = test system: ZF4 (fibroblasts) cell line; test: CFDA endpoint of AB/CFDA/NR multiplex, membrane stability; type: cell-based, zebrafish (Danio rerio); conditions: Danio rerio, Fibroblast
[14] = test system: ZFL (hepatocytes) cell line; test: cells; type: cell-based, zebrafish (Danio rerio); conditions: Danio rerio, Hepatocyte; remark: listed apart in the source
[15] = test system: ZFL (hepatocytes) cell line; test: cells; type: cell-based, zebrafish (Danio rerio); conditions: Danio rerio, Hepatocyte; remark: listed apart in the source
[16] = test system: ZFL (hepatocytes) cell line; test: cells; type: cell-based, zebrafish (Danio rerio); conditions: Danio rerio, Hepatocyte; remark: listed apart in the source
[17] = test system: ZFL (hepatocytes) cell line; test: cells; type: cell-based, zebrafish (Danio rerio); conditions: Danio rerio, Hepatocyte; remark: listed apart in the source
[18] = test system: zebrafish cell lines vs zebrafish embryo; test: Potency ratios IC50;x/EC50;x (cytotoxicity assays vs mFET); parameters: species or system zebrafish (Danio rerio)

**Q.** Which results are given for `Cc1cc(-n2c(=O)[nH]c(=O)n(C)c2=O)ccc1Oc1ccc(SC(F)(F)F)cc1` [Toltrazuril, toltrazuril]?
**A.** IC50 ([1]; MTS - ZF4, log10 of IC50, read-out: LogIC50 (converted)): 175 µM; IC50 ([1]; MTS - ZF4, read-out: IC50): 175 µM; IC50 ([1]; ZF4, 48 h exposure, nominal, log10, read-out: logIC50 (log10 IC50;nom) MTS (converted)): 174 µM; IC50 ([1]; ZF4, 48 h exposure, nominal, read-out: IC50;nom MTS): 175 µM; IC50 ([2]; BCA - ZF4, log10 of IC50, read-out: LogIC50 (converted)): 141 µM; IC50 ([2]; BCA - ZF4, read-out: IC50): 141 µM; IC50 ([2]; ZF4, 48 h exposure, nominal, log10, read-out: logIC50 (log10 IC50;nom) BCA (converted)): 141 µM; IC50 ([2]; ZF4, 48 h exposure, nominal, read-out: IC50;nom BCA): 141 µM; IC50 ([3]; ATP - ZF4, log10 of IC50, read-out: LogIC50 (converted)): 43.8 µM; IC50 ([3]; ATP - ZF4, read-out: IC50): 43.8 µM; IC50 ([3]; ZF4, 48 h exposure, nominal, log10, read-out: logIC50 (log10 IC50;nom) ATP (converted)): 43.7 µM; IC50 ([3]; ZF4, 48 h exposure, nominal, read-out: IC50;nom ATP): 43.8 µM; IC50 ([4]; NR-fluo - ZF4, log10 of IC50, read-out: LogIC50 (converted)): 81.3 µM; IC50 ([4]; NR-fluo - ZF4, read-out: IC50): 81.3 µM; IC50 ([4]; ZF4, 48 h exposure, nominal, log10, read-out: logIC50 (log10 IC50;nom) NRf (converted)): 81.3 µM; IC50 ([4]; ZF4, 48 h exposure, nominal, read-out: IC50;nom NRf): 81.3 µM; IC50 ([5]; MTS - ZFL, log10 of IC50, read-out: LogIC50 (converted)): 62.8 µM; IC50 ([5]; MTS - ZFL, read-out: IC50): 62.8 µM; IC50 ([5]; ZFL, 48 h exposure, nominal, log10, read-out: logIC50 (log10 IC50;nom) MTS (converted)): 63.1 µM; IC50 ([5]; ZFL, 48 h exposure, nominal, read-out: IC50;nom MTS): 62.8 µM; IC50 ([6]; BCA - ZFL, log10 of IC50, read-out: LogIC50 (converted)): 294 µM; IC50 ([6]; BCA - ZFL, read-out: IC50): 294 µM; IC50 ([6]; ZFL, 48 h exposure, nominal, log10, read-out: logIC50 (log10 IC50;nom) BCA (converted)): 295 µM; IC50 ([6]; ZFL, 48 h exposure, nominal, read-out: IC50;nom BCA): 294 µM; IC50 ([7]; ATP - ZFL, log10 of IC50, read-out: LogIC50 (converted)): 20.3 µM; IC50 ([7]; ATP - ZFL, read-out: IC50): 20.3 µM; IC50 ([7]; ZFL, 48 h exposure, nominal, log10, read-out: logIC50 (log10 IC50;nom) ATP (converted)): 20.4 µM; IC50 ([7]; ZFL, 48 h exposure, nominal, read-out: IC50;nom ATP): 20.3 µM; IC50 (ZF4 and ZFL cell lines; Danio rerio, log10, read-out: Mean log IC50nom (converted)): 85.1 µM; Mean log IC50nom (ZF4 and ZFL cell lines; log10, listed as Tol): -4.074 M; EC50 (zebrafish embryos [8]; 144 hpf, converted): 2.59 µM; logEC50 144 hpf (zebrafish embryos [8]; log10): -5.5874 M; IC50 ([9]; AB - ZF4, log10 of IC50, read-out: LogIC50 (converted)): 97.5 µM; IC50 ([9]; AB - ZF4, read-out: IC50): 97.5 µM; IC50 ([9]; ZF4, 48 h exposure, nominal, log10, read-out: logIC50 (log10 IC50;nom) AB (converted)): 97.7 µM; IC50 ([9]; ZF4, 48 h exposure, nominal, read-out: IC50;nom AB): 97.5 µM; IC50 ([10]; NR-abs - ZF4, log10 of IC50, read-out: LogIC50 (converted)): 49.4 µM; IC50 ([10]; NR-abs - ZF4, read-out: IC50): 49.4 µM; IC50 ([10]; ZF4, 48 h exposure, nominal, log10, read-out: logIC50 (log10 IC50;nom) NRa (converted)): 49 µM; IC50 ([10]; ZF4, 48 h exposure, nominal, read-out: IC50;nom NRa): 49.4 µM; IC50 ([10]; ZF4 cell line, NRa endpoint, nominal, read-out: IC50;nom): 21 µg/mL; BCF [11]: 14.3; Physiological charge [11]: 0; Water Solubility [11]: insoluble; logKoa [11]: 10.2; logKow [11]: 4.31; pKa (Strongest Acidic) [11]: 6.47; w_solubility (water solubility) [11]: 106 µM; difference in toxicity (EC50;nom) between 48 hpf and 144 hpf (zebrafish embryos [12]; 48 hpf time point less sensitive than 144 hpf): marginally more toxic; log EC50;nom (mFET) (zebrafish embryos [12]; 48 hpf, nominal, log10, listed as Tol): -4.897 M; EC50 (zebrafish embryos [12]; 48 hpf, nominal, log10, read-out: log EC50;nom (mFET) (converted)): 12.6 µM; EC50 (zebrafish embryos [12]; 48 hpf, nominal, read-out: EC50;nom (embryo)): 5.4 µg/mL; EC50 (zebrafish embryos [12]; read-out: EC50 48hpf): 12.7 µM; EC50 (zebrafish embryos [12]; read-out: EC50;nom (mFET)): 12.7 µM; IC50 ([13]; CFDA - ZF4, log10 of IC50, read-out: LogIC50 (converted)): 104 µM; IC50 ([13]; CFDA - ZF4, read-out: IC50): 104 µM; IC50 ([13]; ZF4, 48 h exposure, nominal, log10, read-out: logIC50 (log10 IC50;nom) CFDA (converted)): 105 µM; IC50 ([13]; ZF4, 48 h exposure, nominal, read-out: IC50;nom CFDA): 104 µM; IC50 ([14]; NR-abs - ZFL, log10 of IC50, read-out: LogIC50 (converted)): 84.7 µM; IC50 ([14]; NR-abs - ZFL, read-out: IC50): 84.7 µM; IC50 ([14]; ZFL, 48 h exposure, nominal, log10, read-out: logIC50 (log10 IC50;nom) NRa (converted)): 85.1 µM; IC50 ([14]; ZFL, 48 h exposure, nominal, read-out: IC50;nom NRa): 84.7 µM; IC50 ([15]; NR-fluo - ZFL, log10 of IC50, read-out: LogIC50 (converted)): 78.7 µM; IC50 ([15]; NR-fluo - ZFL, read-out: IC50): 78.7 µM; IC50 ([15]; ZFL, 48 h exposure, nominal, log10, read-out: logIC50 (log10 IC50;nom) NRf (converted)): 79.4 µM; IC50 ([15]; ZFL, 48 h exposure, nominal, read-out: IC50;nom NRf): 78.7 µM; IC50 ([16]; AB - ZFL, log10 of IC50, read-out: LogIC50 (converted)): 69.6 µM; IC50 ([16]; AB - ZFL, read-out: IC50): 69.6 µM; IC50 ([16]; ZFL, 48 h exposure, nominal, log10, read-out: logIC50 (log10 IC50;nom) AB (converted)): 69.2 µM; IC50 ([16]; ZFL, 48 h exposure, nominal, read-out: IC50;nom AB): 69.6 µM; IC50 ([17]; CFDA - ZFL, log10 of IC50, read-out: LogIC50 (converted)): 122 µM; IC50 ([17]; CFDA - ZFL, read-out: IC50): 122 µM; IC50 ([17]; ZFL, 48 h exposure, nominal, log10, read-out: logIC50 (log10 IC50;nom) CFDA (converted)): 123 µM; IC50 ([17]; ZFL, 48 h exposure, nominal, read-out: IC50;nom CFDA): 122 µM; in vitro toxicity (IC50;free) higher than EC50;nom ([18]; ZF4 NRa endpoint vs embryo): 2 fold; potency ratio IC50;nom/EC50;nom (median) ([18]; median over cytotoxicity endpoints, nominal, 48 h cells / 48 hpf mFET): 6.54
